Measurements as given in patent US6905834B1, “Bioluminescent bioreporter integrated circuit detection methods” (UT-Battelle, LLC, priority 1997, dated 2005).

What was measured:
[1] = test system: N. europaea Km^r hao-lux; assay: Bioluminescence response of N. europaea hao-lux fusion to NH4+; format: cell-based, Nitrosomonas europaea
Experimental: The NH4^+ detection limits were determined to be 20 μM at 30 min of exposure and 10 μM at 60 min or 90 min of exposure (threefold increase over background bioluminescence).

[2] = test system: S. cerevisiae HER; assay: Sol-gel encapsulated yeast β-galactosidase bioreporter for estrogenic activity; format: cell-based, Saccharomyces cerevisiae; details: over a seven day period; comparable to non-encapsulated positive control
Experimental: Sol-gel encapsulation studies substituting another yeast strain, S. cerevisiae HER, a β-galactosidase bioreporter for estrogenic activity were conducted. Strain HER was successfully incorporated into the sol-gel matrix while retaining responsiveness to the estrogen inducer β-estradiol.

[3] = test system: P. fluorescens HK44; format: cell-based, Pseudomonas fluorescens
Text: A previously developed PBR system with on-line instrumentation (Webb, 1992; Webb et al., 1991) was used to measure bacterial degradative and bioluminescent activity under conditions mimicking those of the subsurface. The reactor design is detailed in FIG. 21. The PBR was temperature controlled and fitted with metal frits welded to the inlet and outlet to retain and distribute feed to immobilized cultures. An additional inter-cavity insert allowed the installation of filters (e.g., […] inorganic and polymeric) between the packed bed and outlet frit that filtered the effluent for automatic injection into the on-line high-performance liquid chromatography (HPLC) and that produced a uniform resistance to flow that improved the overall distribution to the reactor (Webb, 1992). […] HPLC pumps supplied media to each reactor from pressurized feed reservoirs. All nutrients, including oxygen, entered the reactor dissolved in the liquid phase. Naphthalene and salicylate were detected with an on-line HPLC using a Vydac TP20154 column (Sep/A/Ra/Tions Group, Hesperia, Calif.) with a FL-4 dual-monochromator fluorescent detector (Perkin-Elmer, Norwalk, Conn.). Respective excitation and emission wavelengths for salicylate detection were 290 and 360 nm. The reactor was fitted with an on-line light detector for monitoring bioluminescent activity (Dunbar, 1992) consisting of a glued fiber bundle (Ensign Bickford Optics, Simsbury, Conn.) placed approximately 2.5 cm from the entrance of the reactor. An Oriel Inc. (Stratford, Conn.) 7070 photomultiplier detection system using a Model 77348 photomultiplier tube (radiant sensitivity of […] near 500 nm) were employed.
Mineral salts media (pH 7.2) consisting of MgSO4 7H2O ([…]), NH4NO3 ([…]), trizma™ base ([…]), MgO (1.0×10^−3 g/l), CaCl2 (2.9×10^−4 g/l), FeCl3.6H2O (5.4×10^−4 g/l), ZnSO4.7H2O (1.4×10^−4 g/l), CuSO4 (2.5×10^−5 g/l), […] (6.2×10^−6 g/l), and Na2MoO4.H2O (4.9×10^−5 g/l) were supplied to the reactor with an appropriate carbon source for degradation and bioluminescence studies. Kinetic bacterial studies were phosphate limited and maintained aerobic by con-trolled pressurization of feeds and the reactor.
The HK44 was prepared for immobilization by adding freshly thawed inoculum (frozen at −70° C. until use) to 100 mL of YEPG media which contained glucose (1.0 g/l), polypeptone (2.0 g/l), yeast extract (0.2 g/l), NH4NO3 (0.2 g/l), and tetracycline (14 mg/l). The culture was shaken for 15 hours at 25° C. and then centrifuged at 8000 rpm for 10 minutes. The pellet was then washed with 0.9% NaCl solution three times before immobilization. The concentration of HK44 was enumerated by measuring optical density at 546 nm. The HK44 was immobilized by suspending bacteria in 0.9% NaCl solution and mixing with a low-viscosity alginate (28 g/L) and NaCl (9 g/L) solution in a ratio of 1:2 by volume. Beads were formed by controlled dropwise addition to 0.1 M CaCl2 solution by a syringe needle installed in an air jet controlled by a precision regulator (Porter Instrument Co., Hatfield, Pa.) and a piece of 0.003-in. (i.d.) tubing. Beads diameters were measured using gentle wet sieving. Alginate beads were dissolved in 50 mM sodium hexametaphosphate. […]

[4] = Adsorption isotherms on calcium alginate; format: physicochemical
Experimental: Tracer concentrations were measured using a Waters ion-chromatography system with a series 510 HPLC pump, IC-PAK anion exchange column, and 431 conductance detector (Waters, Cam-bridge, MA) or monitored continuously using fluorescence.

[5] = test system: HK44 cells; details: liquid assays; cited from earlier work
[6] = Model parameters for naphthalene (diffusion, equilibrium constant); format: physicochemical
Text: Biot numbers were on the order of 100. Effectiveness factor calculations using the best-fit first-order reaction rate constant indicate that the beads were limited by the reaction rate and not by internal mass transfer resistance. The good fit obtained using the analytical solution, wherein external and internal mass transfer was assumed negligible, also support the conclusion that mass transfer effects were minimal. The model predicts that the salicylate distribution reaches a steady state within an alginate bead (99% of final) in about 7 minutes. Even assuming that the diffusion coefficient was reduced by an order of magnitude in the alginate matrix, a steady state was reached within 15 min. […] Cell volume estimated at less than 1% probably had little effect on diffusion. The model also predicted that liquid mass transfer resistance would have little effect on reaching steady state. […] A positive 50% error in the measured adsorption coefficient would result in doubling the time required to reach steady state. […] Model parameters have been measured (liquid mass transfer coefficient, pellet void volume, and adsorption coefficients), reported, and estimated. Respective coefficients for naphthalene were […], 9.0×10^−8 cm^2 s^−1 and 8.4 cm^2 s mol^−1 for liquid diffusion, solid diffusion, and Langmuir equilibrium constants. Companion free cell studies are needed to further aid evaluation of free and immobilized kinetics and response.

SMILES: N.N.O=S(=O)(O)O [NH4^+, (NH4)2SO4]
- NH4^+ detection limit (threefold increase over background bioluminescence) ([1]; 30 min of exposure): 20 µM
- NH4^+ detection limit (threefold increase over background bioluminescence) ([1]; 60 min or 90 min of exposure): 10 µM

SMILES: C[C@]12CC[C@@H]3c4ccc(O)cc4CC[C@H]3[C@@H]1CC[C@@H]2O [β-estradiol]
- estrogenic response of sol-gel encapsulated yeast cells (in words) [2]: an estrogenic response was initiated

SMILES: c1ccc2ccccc2c1 [naphthalene]
- Bioluminescence ± σ ([3]; experiment 5b, biomass […] 10^9 cells/mL, sodium salicylate 2.5 mg/L plus naphthalene 8.0, τ 15 min): 4.79 ± 3.18 × 10^−1 nA
- steady-state light response to naphthalene relative to response to salicylate ([3]; identical conditions, alginate-immobilized HK44): approximately two orders of magnitudes greater
- adsorption on calcium alginate (in words) [4]: adsorbed linearly
- adsorption isotherm on calcium alginate, dimensionless ratio ([4]; linear isotherm): 8.4
- linear luminescence response, lower concentration [5]: 0.72 µg/L
- linear luminescence response, upper concentration [5]: 3.25 mg/L
- Langmuir equilibrium constant [6]: 8.4 cm^2 s mol^−1
- liquid diffusion coefficient [6]: 9.0×10^6 cm^2 s^−1
- solid diffusion coefficient [6]: 9.0×10^−8 cm^2 s^−1
